Measured values published in the NIST ThermoML archive (doi:10.1021/je900093h).

Details: for vapor or sublimation pressure: Liquid, Calculated from knudsen effusion weight loss

CCCCCCCCCC(=O)OCC [ethyl decanoate]
Details	Triple point temperature [K]	vapor or sublimation pressure [kPa]
293.77 K	–	0.00169
298.67 K	–	0.00267
298.72 K	–	0.00267
303.68 K	–	0.00414
308.61 K	–	0.00648
313.57 K	–	0.01
318.32 K	–	0.0152
323.24 K	–	0.0219
Crystal	253.6	–
